Assay results published in patent publication US9247759B2, “Identification of human T2R receptors that respond to bitter compounds that elicit the bitter taste in compositions, and the use thereof in assays to identify compounds that inhibit (block) bitter taste in compositions and use thereof” (SENOMYX, INC., priority 2007, dated 2016).
Like-named read-outs stand apart in the source and are kept apart here.

Columns and labels:
hT2R8 = hT2R8 (Homo sapiens (Human), UniProt Q9NYW2); assay: hT2R8 antagonist high-throughput FLIPR assay, stable cell line with G16g44, agonist andrographolide; type: cell-based
Sequence of hT2R8 (Q9NYW2 whole entry): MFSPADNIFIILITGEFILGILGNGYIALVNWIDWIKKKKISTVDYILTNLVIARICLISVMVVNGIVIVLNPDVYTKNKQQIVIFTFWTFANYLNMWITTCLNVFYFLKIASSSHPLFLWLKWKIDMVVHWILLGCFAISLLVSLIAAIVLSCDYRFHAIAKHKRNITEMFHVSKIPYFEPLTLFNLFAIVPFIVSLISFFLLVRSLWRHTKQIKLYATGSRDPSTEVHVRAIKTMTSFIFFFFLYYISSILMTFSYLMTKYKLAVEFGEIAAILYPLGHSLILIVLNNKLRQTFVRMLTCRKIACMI
Method in brief: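 Antagonist screen: compounds co-applied with agonist andrographolide at 200 μM, a dose giving 70–80% of maximal hT2R8 activation. Fluorescence measured by FLIPR in a stable HEK293 line expressing both hT2R8 and the promiscuous G16g44 protein.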

[1] = read-out: IC50 on hT2R8 bitter receptor
[2] = table after Example 10-97, read-out: hT2R8 IC50

| SMILES | IC50 (hT2R8; [1]) [nM] | IC50 (hT2R8; [2]) [nM] | melting point [°C] |
| --- | --- | --- | --- |
| Cc1noc(C)c1Cn1cc(N2C(=O)CN(CCc3cccc(F)c3)C2=O)cn1 [Example 10-77, 3-(1-((3,5-dimethylisoxazol-4-yl)methyl)-1H-pyrazol-4-yl)-1-(3-fluorophenethyl)imidazolidine-2,4-dione] | 60 | 64 | 110 to 111 |
| Cc1noc(C)c1Cn1cc(N2C(=O)c3ccccc3C2=O)cn1 [Example 9-1, 2-(1-((3,5-dimethylisoxazol-4-yl)methyl)-1H-pyrazol-4-yl)isoindoline-1,3-dione] | 180 |  | 170 to 171 |
| Cc1noc(C)c1Cn1cc(NC(=O)Cc2ccccc2)cn1 [Example 4-6, N-(1-((3,5-dimethylisoxazol-4-yl)methyl)-1H-pyrazol-4-yl)-2-phenylacetamide] | 530 |  | 106 to 108 |
| Cc1noc(C)c1Cn1cc(NC(=O)C(C)c2ccccc2)cn1 (stereo not shown) [Example 4-5, N-(1-((3,5-dimethylisoxazol-4-yl)methyl)-1H-pyrazol-4-yl)-2-phenylpropanamide] | 320 |  | 129 to 130 |
| Cc1noc(C)c1Cn1cc(NC(=O)C23CC4CC(CC(C4)C2)C3)cn1 [Example 4-16, N-(1-((3,5-dimethylisoxazol-4-yl)methyl)-1H-pyrazol-4-yl) adamantane] | 880 |  | 167 to 169 |
| Cc1noc(C)c1Cn1cc(N2C(=O)CN(CCOc3ccccc3)C2=O)cn1 [Example 10-5, 3-(1-((3,5-dimethylisoxazol-4-yl)methyl)-1H-pyrazol-4-yl)-1-(2-phenoxyethyl)imidazolidine-2,4-dione] | 60 | 63 | 117 to 118 |
| COc1cc(CC(=O)Nc2cnn(Cc3c(C)noc3C)c2)cc(OC)c1O [Example 4-4, N-(1-((3,5-dimethylisoxazol-4-yl)methyl)-1H-pyrazol-4-yl)-2-(4-hydroxy-3,5-dimethoxyphenyl)acetamide] | 460 |  | 187 to 188 |
